Data published in PMC4900891 (Biochemistry, 2016).
Substitutions are numbered along the chain they refer to. Where “and” joins values, the source holds several entries; their conditions need not be identical. Identical values can stand only once. Values belong to the compound of their own block, whether it stands above or below them. Square brackets hold non-standard residues; d marks the D form. Peptide text beside a SMILES is read from it. pY = N[C@@H](Cc1ccc(OP(=O)(O)O)cc1)C(=O)O

What was measured:
SHP2^E76Q [1] = target: T1, SHP2^E76Q (Homo sapiens, UniProt Q06124, E76Q); assay: Basal DiFMUP dephosphorylation kinetics, E76Q; format: biochemical; details: substrate DiFMUP, basal (no peptide); 0.05 nM enzyme, Hepes pH 7.2
T1 sequence (Q06124 1-525 E76Q): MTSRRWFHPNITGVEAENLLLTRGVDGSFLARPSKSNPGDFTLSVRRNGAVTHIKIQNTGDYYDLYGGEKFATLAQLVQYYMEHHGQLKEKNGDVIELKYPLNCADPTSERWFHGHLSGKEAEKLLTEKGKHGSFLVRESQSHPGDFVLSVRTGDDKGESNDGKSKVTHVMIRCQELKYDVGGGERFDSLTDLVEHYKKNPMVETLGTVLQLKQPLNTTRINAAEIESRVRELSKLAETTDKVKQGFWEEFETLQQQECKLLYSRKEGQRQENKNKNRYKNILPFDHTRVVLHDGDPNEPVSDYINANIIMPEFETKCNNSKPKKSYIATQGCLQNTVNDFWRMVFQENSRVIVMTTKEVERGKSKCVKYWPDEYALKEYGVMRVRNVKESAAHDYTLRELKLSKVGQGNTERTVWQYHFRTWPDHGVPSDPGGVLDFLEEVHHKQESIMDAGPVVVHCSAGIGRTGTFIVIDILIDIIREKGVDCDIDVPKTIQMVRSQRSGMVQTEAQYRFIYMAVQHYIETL

SHP2^S502P [2] = target: T2, SHP2^S502P (Homo sapiens, UniProt Q06124, S502P); assay: Basal DiFMUP dephosphorylation kinetics, S502P; format: biochemical; details: substrate DiFMUP, basal (no peptide); 0.025 nM enzyme, Hepes pH 7.2
T2 sequence (Q06124 1-525 S502P): T1 sequence (Q06124 1-525 E76Q) with Q76E, S502P

SHP2^WT [3] = target: T3, SHP2^WT (Homo sapiens, UniProt Q06124); details: substrate DiFMUP, basal (no peptide); 2.5 nM enzyme, Hepes pH 7.2
T3 sequence (Q06124 1-525): T1 sequence (Q06124 1-525 E76Q) with Q76E

SHP2^PTP = details: substrate DiFMUP, basal (no peptide); 0.00625 nM enzyme, Hepes pH 7.2
SHP2^WT [4] = target: T3, SHP2^WT; assay: Phosphopeptide activation of SHP2; format: biochemical
SHP2^E76Q [5] = target: T1, SHP2^E76Q; assay: Phosphopeptide activation of SHP2; format: biochemical
SHP2^S502P [6] = target: T2, SHP2^S502P; assay: Phosphopeptide activation of SHP2; format: biochemical
SHP2 (both SH2 domains) = details: cited from earlier work

Compound: Cc1cc(=O)oc2c(F)c(OP(=O)(O)O)c(F)cc12 [DiFMUP, 6,8-Difluoro-4-Methylumbelliferyl Phosphate]
- kcat/KM (SHP2^E76Q [1]): 71000 M⁻¹ s⁻¹ and 71200 M⁻¹ s⁻¹
- kcat/KM (SHP2^S502P [2]): 77000 M⁻¹ s⁻¹ and 76500 M⁻¹ s⁻¹
- kcat/KM (SHP2^WT [3]): 2100 M⁻¹ s⁻¹
- kcat/KM (SHP2^PTP): 298000 M⁻¹ s⁻¹

Compound: CC[C@H](C)[C@H](NC(=O)[C@H](Cc1ccc(OP(=O)(O)O)cc1)NC(=O)[C@H](CC(N)=O)NC(=O)[C@H](CC(C)C)NC(=O)[C@@H](N)CO)C(=O)N[C@@H](CC(=O)O)C(=O)N[C@@H](CC(C)C)C(=O)N[C@@H](CC(=O)O)C(=O)N[C@@H](CC(C)C)C(=O)N[C@H](C(=O)N[C@@H](CCCCN)C(=O)O)C(C)C [PY1172] (H-SLN[pY]IDLDLVK-OH)
- EC50 (SHP2^WT [4]): 10000 nM
- EC50 (SHP2^E76Q [5]): 350 nM
- EC50 (SHP2^S502P [6]): 830 nM

- extent of activation (SHP2^WT [4]; double-phosphorylated peptide, low-micromolar concentrations): complete activation
- sensitivity to bisphosphorylated peptide (SHP2^E76Q [5]; relative to SHP2^WT): greatest sensitivity
- sensitivity to bisphosphorylated peptide (SHP2^S502P [6]; relative to SHP2^WT): greatest sensitivity
Compound: SLNY(p)IDLDLVK-dPEG8-LSTY(p)ASINFQK [PY1172-PEG-PY1222]
- SH2 domain occupancy and activation (SHP2 (both SH2 domains)): occupies both SH2 domains and induces full activation of the phosphatase
